From patent US20260295067A1, “PANRAS INHIBITOR ANTIBODY-DRUG CONJUGATES AND METHODS OF USE THEREOF” (NOVARTIS AG, priority 2023, published 2026)
pIC50: −log10 of the molar value.

Experiments:
CDK6 = settings: Finn et al. (2009); cited from earlier work
CDK4 = settings: Finn et al. (2009); cited from earlier work
HPAC = assay: CellTiter-Glo proliferation/survival assay, HPAC; assay type: cell-based; settings: Homo sapiens, 120 h, 5 days, 0.005-100 nM
Method: (§1) The panRAS antibody drug conjugates were tested against the following cancer cell lines: • LU65: JCRB No. JCRB0079 cultured in RPMI-1640+10% FBS • HPAC: ATCC No. CRL-2119 cultured in DMEM:HAM's F12+5% FBS • NCI-H727: ATCC No. CRL-5815 cultured in RPMI-1640+10% FBS • SW1271: ATCC No. CRL-2177 cultured in DMEM+10% FBS
(§2) The ability of the panRAS antibody drug conjugates to inhibit cell proliferation and survival was assessed using the Promega CellTiter-Glo® proliferation assay.
(§3) Cell lines were cultured in media that is optimal for their growth at 5% CO2, 37° C. in a tissue culture incubator. Prior to seeding for the proliferation assay, the cells were split at least 2 days before the assay to ensure optimal growth density. On the day of seeding, cell viability and cell density were determined using a cell counter (Vi-Cell XR Cell Viability Analyzer, Beckman Coulter). […] Plates were incubated at 5% CO2, 37° C. for 5 days in a tissue culture incubator, after which cell viability was assessed through the addition of 25 μL of CellTiter Glo® (Promega, cat #G7573), a reagent which lyses cells and measures total adenosine triphosphate (ATP) content. Plates were incubated at room temperature for 10 minutes to stabilize luminescent signals prior to reading using a luminescence reader (EnVision Multilabel Plate Reader, PerkinElmer). […]

SW1271 = assay: CellTiter-Glo proliferation/survival assay, SW1271; assay type: cell-based; settings: 120 h, 5 days, 0.005-100 nM
Method: as §1, §2, §3

H727 = assay: CellTiter-Glo proliferation/survival assay, H727; assay type: cell-based; settings: Homo sapiens, NCI-H727, 120 h, 5 days, 0.005-100 nM
Method: as §1, §2, §3

SMILES | pIC50 (CDK6) | pIC50 (CDK4) | pIC50 (HPAC) | pIC50 (SW1271) | pIC50 (H727)
CC(=O)c1c(C)c2cnc(Nc3ccc(N4CCNCC4)cn3)nc2n(C2CCCC2)c1=O [Palbociclib, 6-Acetyl-8-cyclopentyl-5-methyl-2-{[5-(1-piperazinyl)-2-pyridinyl]amino}pyrido[2,3-d]pyrimidin-7(8H)-one] | 7.80 | […] |  |  | 
C=CC(=O)N1CCN(c2nc(=O)n(-c3c(C)ccnc3C(C)C)c3nc(-c4c(O)cccc4F)c(F)cc23)[C@@H](C)C1 [Sotorasib] |  |  | < 7.00 | < 7.00 | < 7.00
